Source: patent publication US20100075960A1 (priority 2006, published 2010)

Tests used:
Format in all cases: cell-based
LNCaP = test: Inhibition of cell proliferation, LNCaP; settings: Homo sapiens, Prostate, 72 h, methylene blue or CellTiter-Glo
Procedure: (§1) II. Inhibition of Cell Proliferation by PLK1 Inhibitors.
(§2) Exponentially growing cell lines of different tumor origins, cultured in appropriate media containing 10% fetal bovine serum at 37° C. in a 5% CO2 incubator were plated in 96 or 384-well plates. Twenty four hours post-plating, cells were treated with different concentrations of test compounds ranging from 20 μM to 0.04 nM. Several wells were left untreated as a control. Seventy two hours post-treatment, cell numbers were determined using different techniques; 100 μl per well of methylene blue (Sigma M9140) (0.5% in 50:50 Ethanol:water), or 10-100 μl per well of CellTiter-Glo (Promega #G7573), depending on well size. For methylene blue staining, stain was incubated at room temperature for 30 minutes before plates were rinsed and dye solubilized in 1% N-lauroyl sarcosine, sodium salt, (Sigma L5125, in PBS). Plates were read on a microplate reader, measuring the OD at 620 nm. For CellTiter-Glo, plates were incubated at room temperature for 15 minutes and the chemiluminescent signal was read on the Victor V or Envison 2100 reader.
(§3) Percent inhibition of cell growth was expressed as percent proliferation relative to 100% proliferation (control). […]

HCT-15 = test: Inhibition of cell proliferation, HCT-15; settings: Homo sapiens, colon, 72 h, methylene blue or CellTiter-Glo
Procedure: as §1, §2, §3

LoVo = test: Inhibition of cell proliferation, LoVo; settings: Homo sapiens, colon, 72 h, methylene blue or CellTiter-Glo
Procedure: as §1, §2, §3

EB-3 = test: Inhibition of cell proliferation, EB-3; settings: Homo sapiens, peripheral blood, 72 h, methylene blue or CellTiter-Glo
Procedure: as §1, §2, §3

HT-1080 = test: Inhibition of cell proliferation, HT-1080; settings: Homo sapiens, connective tissue, 72 h, methylene blue or CellTiter-Glo
Procedure: as §1, §2, §3

SKMEL5 = test: Inhibition of cell proliferation, SKMEL5; settings: Homo sapiens, SK-MEL-5; skin; 72 h; methylene blue or CellTiter-Glo
Procedure: as §1, §2, §3

Hela = test: Inhibition of cell proliferation, Hela; settings: Homo sapiens, Cervical, 72 h, methylene blue or CellTiter-Glo
Procedure: as §1, §2, §3

CEM/C1 = test: Inhibition of cell proliferation, CEM/C1; settings: peripheral blood, 72 h, methylene blue or CellTiter-Glo
Procedure: as §1, §2, §3

CRO-AP2 = test: Inhibition of cell proliferation, CRO-AP2; settings: Homo sapiens, peripheral blood, 72 h, methylene blue or CellTiter-Glo
Procedure: as §1, §2, §3

MiaPaca = test: Inhibition of cell proliferation, MiaPaca; settings: Homo sapiens, MIA PaCa-2; Pancreatic; 72 h; methylene blue or CellTiter-Glo
Procedure: as §1, §2, §3

BDCM = test: Inhibition of cell proliferation, BDCM; settings: peripheral blood; 72 h; methylene blue or CellTiter-Glo
Procedure: as §1, §2, §3

SW156 = test: Inhibition of cell proliferation, SW156; settings: kidney; 72 h; methylene blue or CellTiter-Glo
Procedure: as §1, §2, §3

HCC1937 = test: Inhibition of cell proliferation, HCC1937; settings: Homo sapiens, breast, 72 h, methylene blue or CellTiter-Glo
Procedure: as §1, §2, §3

RPMI 8226 = test: Inhibition of cell proliferation, RPMI 8226; settings: Homo sapiens, leukemia, 72 h, methylene blue or CellTiter-Glo
Procedure: as §1, §2, §3

ASPC3 = test: Inhibition of cell proliferation, ASPC3; settings: Pancreatic; 72 h; methylene blue or CellTiter-Glo
Procedure: as §1, §2, §3

A 704 = test: Inhibition of cell proliferation, A 704; settings: Homo sapiens, A704; kidney; 72 h; methylene blue or CellTiter-Glo
Procedure: as §1, §2, §3

Hep3B = test: Inhibition of cell proliferation, Hep3B; settings: Homo sapiens, liver, 72 h, methylene blue or CellTiter-Glo
Procedure: as §1, §2, §3

Calu1 = test: Inhibition of cell proliferation, Calu1; settings: Homo sapiens, Calu-1; lung; 72 h; methylene blue or CellTiter-Glo
Procedure: as §1, §2, §3

SKOV-3 = test: Inhibition of cell proliferation, SKOV-3; settings: Homo sapiens, SK-OV-3; Ovarian; 72 h; methylene blue or CellTiter-Glo
Procedure: as §1, §2
Percent inhibition of cell growth was expressed as percent proliferation relative to 100% proliferation (control). Concentration of test compound that inhibited 50% of cell growth (IC50) was determined by 4 parameter fit of data using XLfit, (value of no cell control was substracted from all samples for background). The data are shown in Table 1 and Table 2 below and represent a compilation of several different experiments each performed using the general parameters outlined above, although minor variations may have been employed in some instances, in Table 1 and Table 2, +=IC50>1 μM; ++=IC50 0.5-1 μM: +++=IC50<0.5 μM.

MV522 = test: Inhibition of cell proliferation, MV522; settings: Lung, 72 h, methylene blue or CellTiter-Glo
Procedure: as §1, §2, §3

H1299 = test: Inhibition of cell proliferation, H1299; settings: Homo sapiens, NCI-H1299; Lung; 72 h; methylene blue or CellTiter-Glo
Procedure: as §1, §2, §3

MALME-3M = test: Inhibition of cell proliferation, MALME-3M; settings: Homo sapiens, skin, derived from lung, 72 h, methylene blue or CellTiter-Glo
Procedure: as §1, §2, §3

HCT116 = test: Inhibition of cell proliferation, HCT116; settings: Homo sapiens, HCT-116; 72 h treatment; methylene blue or CellTiter-Glo
BC-1 = test: Inhibition of cell proliferation, BC-1; settings: Homo sapiens, BC1; peripheral blood; 72 h; methylene blue or CellTiter-Glo
Procedure: as §1, §2, §3

BC-2 = test: Inhibition of cell proliferation, BC-2; settings: peripheral blood, 72 h, methylene blue or CellTiter-Glo
Procedure: as §1, §2, §3

- IC50 (LNCaP): < 500 nM
- IC50 (HCT-15): < 500 nM
- IC50 (LoVo): < 500 nM
- IC50 (HT-1080): < 500 nM
- IC50 (SKMEL5): < 500 nM
- IC50 (Hela): < 500 nM
- IC50 (MiaPaca): < 500 nM
- IC50 (SW156): > 1000 nM
- IC50 (HCC1937): > 1000 nM
- IC50 (ASPC3): < 500 nM
- IC50 (Hep3B): < 500 nM
- IC50 (Calu1): < 500 nM
- IC50 (SKOV-3): < 500 nM
- IC50 (H1299): < 500 nM
- IC50 (HCT116): < 500 nM
Compound: C[C@@H](Oc1cc(-n2cnc3cc(-c4cnn(C)c4)ccc32)sc1C(N)=O)c1cccc(OC2CCN(C)CC2)c1Cl [Example 48]
- IC50 (EB-3): < 500 nM
- IC50 (CEM/C1): < 500 nM
- IC50 (CRO-AP2): < 500 nM
- IC50 (BDCM): < 500 nM
- IC50 (RPMI 8226): < 500 nM
- IC50 (A 704): < 500 nM
- IC50 (MV522): < 500 nM
- IC50 (MALME-3M): > 1000 nM
- IC50 (BC-1): < 500 nM
- IC50 (BC-2): > 1000 nM
